Measurements taken from ChEMBL document CHEMBL1201862, “PubChem BioAssay data set” (2004).
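Values below derive from 48-hour exposures of cells grown in 96-well plates, with endpoints linearly interpolated between the two concentrations bracketing the appropriate inhibition level. At the GI50, growth is halved.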 Active and inactive are the calls of the source. Cut-off read from the data, not from the text of the source: active = GI50 up to about 1.1 µM and inactive = higher.

How the values were obtained:
Assay in all cases: inhibition of tumour cell growth, NCI panel, 48 h
[1] = tested on: DU-145
[2] = tested on: EKVX
[3] = tested on: HCC 2998
[4] = tested on: IGROV-1
[5] = tested on: LOX IMVI
[6] = tested on: MCF7
[7] = tested on: MDA-MB-231
[8] = tested on: Malme-3M
[9] = tested on: OVCAR-3
[10] = tested on: OVCAR-8
[11] = tested on: RPMI-8226
[12] = tested on: SF-295
[13] = tested on: SK-OV-3
[14] = tested on: SNB-75
[15] = tested on: SR
[16] = tested on: T47D
[17] = tested on: U-251
[18] = tested on: UACC-257
[19] = tested on: UACC-62
[20] = tested on: UO-31

Row | Structure (SMILES) | GI50 [1] | GI50 [2] | GI50 [3] | GI50 [4] | GI50 [5] | GI50 [6] | GI50 [7] | GI50 [8] | GI50 [9] | GI50 [10] | GI50 [11] | GI50 [12] | GI50 [13] | GI50 [14] | GI50 [15] | GI50 [16] | GI50 [17] | GI50 [18] | GI50 [19] | GI50 [20]
1 | COc1ccc(-c2nc(N)n(C)c2SSc2c(-c3ccc(OC)cc3)nc(N)n2C)cc1 | 17.3 µM (inactive) | 20.8 µM (inactive) | 17.8 µM (inactive) | 14.3 µM (inactive) | 2.03 µM (inactive) | 8.51 µM (inactive) | 6.78 µM (inactive) | 9.42 µM (inactive) | 7.23 µM (inactive) | 5.81 µM (inactive) | 2.69 µM (inactive) | 11.6 µM (inactive) | 18.6 µM (inactive) | 3.34 µM (inactive) | 2.23 µM (inactive) | 1.86 µM (inactive) | 13 µM (inactive) | 5.96 µM (inactive) | 3.81 µM (inactive) | 5.25 µM (inactive)
2 | [N-]=[N+]=Nc1c(-c2ccccc2)c(=O)n(-c2ccccc2)c2ccccc12 | > 100 µM (inactive) | 17.6 µM (inactive) | 35.2 µM (inactive) | > 100 µM (inactive) | 63.2 µM (inactive) | 54.1 µM (inactive) | 74.3 µM (inactive) | 19.3 µM (inactive) | 52 µM (inactive) | 90.2 µM (inactive) | > 100 µM (inactive) | 49 µM (inactive) | > 100 µM (inactive) | 36.4 µM (inactive) | > 100 µM (inactive) | 24.6 µM (inactive) | 52.1 µM (inactive) | 65.8 µM (inactive) | 56 µM (inactive) | 37.3 µM (inactive)
3 | C[n+]1ccc(/C2=C3\C=CC(=N3)/C(c3cc[n+](C)cc3)=c3/cc/c([nH]3)=C(\c3cc[n+](C)cc3)C3=N/C(=C(/c4cc[n+](C)cc4)C4C=CC2N4)C=C3)cc1 | > 100 µM (inactive) | > 100 µM (inactive) | 84.7 µM (inactive) | 71.4 µM (inactive) | > 100 µM (inactive) | > 100 µM (inactive) | > 100 µM (inactive) | > 100 µM (inactive) | > 95.5 µM (inactive) | > 100 µM (inactive) | > 48.2 µM (inactive) | > 100 µM (inactive) | > 85.3 µM (inactive) | 51.1 µM (inactive) | 7.73 µM (inactive) | > 100 µM (inactive) | 3.93 µM (inactive) | > 48.5 µM (inactive) | > 100 µM (inactive) | > 100 µM (inactive)
4 | CC1(CF)SCc2nc3ccccc3n21 (stereo unspecified) | > 100 µM (inactive) | > 100 µM (inactive) | > 100 µM (inactive) | > 100 µM (inactive) | > 100 µM (inactive) | > 100 µM (inactive) | > 100 µM (inactive) | > 100 µM (inactive) | > 100 µM (inactive) | > 100 µM (inactive) | > 100 µM (inactive) | > 100 µM (inactive) | > 100 µM (inactive) | > 100 µM (inactive) | > 100 µM (inactive) | > 100 µM (inactive) | > 100 µM (inactive) | > 100 µM (inactive) | > 100 µM (inactive) | 81.1 µM (inactive)
5 | Nc1ccccc1CC(O)C(=O)O (stereo unspecified) | > 100 µM (inactive) | > 100 µM (inactive) | > 100 µM (inactive) | – | > 100 µM (inactive) | > 100 µM (inactive) | > 100 µM (inactive) | > 100 µM (inactive) | > 100 µM (inactive) | > 100 µM (inactive) | > 100 µM (inactive) | > 100 µM (inactive) | > 100 µM (inactive) | > 100 µM (inactive) | > 100 µM (inactive) | > 100 µM (inactive) | > 100 µM (inactive) | > 100 µM (inactive) | > 100 µM (inactive) | –
6 | O=CNc1ccc(S(=O)(=O)c2ccc(NC=O)cc2)cc1 | > 100 µM (inactive) | > 100 µM (inactive) | > 100 µM (inactive) | > 100 µM (inactive) | > 100 µM (inactive) | > 100 µM (inactive) | > 100 µM (inactive) | > 100 µM (inactive) | > 100 µM (inactive) | > 100 µM (inactive) | > 100 µM (inactive) | > 100 µM (inactive) | > 100 µM (inactive) | 29.7 µM (inactive) | > 100 µM (inactive) | > 100 µM (inactive) | > 100 µM (inactive) | > 100 µM (inactive) | > 100 µM (inactive) | > 100 µM (inactive)
7 | COC(=O)/C(=C(/C)c1ccco1)P(=O)(OC)OC | > 100 µM (inactive) | > 100 µM (inactive) | > 100 µM (inactive) | > 100 µM (inactive) | > 100 µM (inactive) | > 100 µM (inactive) | > 100 µM (inactive) | > 100 µM (inactive) | > 100 µM (inactive) | > 100 µM (inactive) | > 100 µM (inactive) | > 100 µM (inactive) | > 100 µM (inactive) | > 100 µM (inactive) | > 100 µM (inactive) | > 100 µM (inactive) | > 100 µM (inactive) | > 100 µM (inactive) | > 100 µM (inactive) | 0.01 µM (active)
8 | CCCCN1C(=O)c2c(-c3sccc3N)sc(-c3sccc3N)c2C1=O | 21.4 µM (inactive) | 26.9 µM (inactive) | 73.6 µM (inactive) | 23 µM (inactive) | 30.7 µM (inactive) | 11.2 µM (inactive) | 30.8 µM (inactive) | 21.6 µM (inactive) | 16 µM (inactive) | 12.3 µM (inactive) | 4.47 µM (inactive) | 14.5 µM (inactive) | 10.6 µM (inactive) | 10.4 µM (inactive) | 1.98 µM (inactive) | 14.2 µM (inactive) | 12.9 µM (inactive) | 56.1 µM (inactive) | 19.3 µM (inactive) | 6.84 µM (inactive)
9 | C=C1C(=O)OC2C3C(=C)[C@@H](OC(C)=O)CC3C(C)=CC(OC(=O)C(C)(OC(C)=O)C(C)OC(C)=O)[C@@H]12 (stereo partly specified) | 16.1 µM (inactive) | 16.6 µM (inactive) | 18.6 µM (inactive) | 18.5 µM (inactive) | 13.4 µM (inactive) | 11.5 µM (inactive) | 18.5 µM (inactive) | 13.6 µM (inactive) | 13.2 µM (inactive) | 30.1 µM (inactive) | 6.55 µM (inactive) | 61.2 µM (inactive) | 83.2 µM (inactive) | 18.9 µM (inactive) | 22.2 µM (inactive) | 23.3 µM (inactive) | 16.5 µM (inactive) | 14.9 µM (inactive) | 13.3 µM (inactive) | 16.4 µM (inactive)
10 | C=CCOc1cccc(C2(O)c3ccccc3C3=NCCCN32)c1 (stereo unspecified) | 41.2 µM (inactive) | 3.77 µM (inactive) | 14.5 µM (inactive) | 8.38 µM (inactive) | 14.5 µM (inactive) | 16.8 µM (inactive) | 57 µM (inactive) | 19.9 µM (inactive) | 1.25 µM (inactive) | 14.4 µM (inactive) | 15.2 µM (inactive) | – | 37.7 µM (inactive) | 5.06 µM (inactive) | 8.81 µM (inactive) | 17.4 µM (inactive) | 15.6 µM (inactive) | 16 µM (inactive) | 16.1 µM (inactive) | 13.8 µM (inactive)
11 | C=CCOc1ccc(C2(c3ccc(OCC=C)cc3)C(=O)Nc3ccccc32)cc1 | > 10 µM (inactive) | > 10 µM (inactive) | > 10 µM (inactive) | > 10 µM (inactive) | > 10 µM (inactive) | 8.57 µM (inactive) | > 10 µM (inactive) | > 10 µM (inactive) | > 10 µM (inactive) | > 10 µM (inactive) | > 10 µM (inactive) | > 10 µM (inactive) | > 10 µM (inactive) | > 10 µM (inactive) | > 10 µM (inactive) | 8.13 µM (inactive) | > 10 µM (inactive) | > 10 µM (inactive) | > 10 µM (inactive) | –
12 | CC(C#N)(NO)C(C)(C#N)NO (stereo unspecified) | > 100 µM (inactive) | > 100 µM (inactive) | > 100 µM (inactive) | > 100 µM (inactive) | > 100 µM (inactive) | > 100 µM (inactive) | > 100 µM (inactive) | > 100 µM (inactive) | > 100 µM (inactive) | > 100 µM (inactive) | > 100 µM (inactive) | – | > 100 µM (inactive) | > 100 µM (inactive) | > 100 µM (inactive) | > 100 µM (inactive) | > 100 µM (inactive) | > 100 µM (inactive) | > 100 µM (inactive) | > 100 µM (inactive)
13 | N#Cc1c(N)n(-c2nc3ccccc3s2)c(=O)c2cc([N+](=O)[O-])ccc12 | 25.6 µM (inactive) | 23.3 µM (inactive) | 9.44 µM (inactive) | – | 7.03 µM (inactive) | 7.21 µM (inactive) | 15.6 µM (inactive) | 18.7 µM (inactive) | 14.8 µM (inactive) | 16.8 µM (inactive) | 10.8 µM (inactive) | 9.2 µM (inactive) | 25.4 µM (inactive) | 14.9 µM (inactive) | 14.2 µM (inactive) | 21.8 µM (inactive) | 19.9 µM (inactive) | 23.4 µM (inactive) | 21.3 µM (inactive) | 21.7 µM (inactive)
14 | Fc1ccc(-c2sc(-c3ccsc3)cc2Cc2ccsc2)cc1 | > 10 µM (inactive) | > 10 µM (inactive) | > 10 µM (inactive) | > 10 µM (inactive) | > 10 µM (inactive) | > 10 µM (inactive) | > 10 µM (inactive) | > 10 µM (inactive) | – | > 10 µM (inactive) | > 10 µM (inactive) | > 10 µM (inactive) | > 10 µM (inactive) | > 10 µM (inactive) | > 10 µM (inactive) | > 10 µM (inactive) | – | > 10 µM (inactive) | > 10 µM (inactive) | –
